In patent US12441727B2, “Tricyclic compounds as inhibitors of KRAS” (Incyte Corporation, priority 2021, dated 2025) one finds IC50 data, which are given here for 21 compounds.

In one experiment the target is KRAS G12C (Homo sapiens, UniProt P01116, G12C). Briefly: GDP-GTP exchange assay (KRAS_G12C exchange assay). The class given is biochemical. The conditions noted are these: bodipy-loaded KRAS G12C 2.5 nM, SOS1 150 nM, 2 hours pre-incubation with inhibitor; read-out: G12C_exchange. As to the method:
The inhibitor potency of the exemplified compounds was determined in a fluorescence based guanine nucleotide exchange assay, which measures the exchange of bodipy-GDP (fluorescently labeled GDP) for GppNHp (Non-hydrolyzable GTP analog) to generate the active state of KRAS in the presence of SOS1 (guanine nucleotide exchange factor). Inhibitors were serially diluted in DMSO and a volume of 0.1 μL was transferred to the wells of a black low volume 384-well plate. 5 μL/well volume of bodipy-loaded KRAS G12C diluted to 5 nM in assay buffer (25 mM Hepes pH 7.5, 50 mM NaCl, 10 mM MgCl2 and 0.01% Brij-35) was added to the plate and pre-incubated with inhibitor for 2 hours at ambient temperature. Appropriate controls (enzyme with no inhibitor or with a G12C inhibitor (AMG-510)) were included on the plate. The exchange was initiated by the addition of a 5 μL/well volume containing 1 mM GppNHp and 300 nM SOS1 in assay buffer. The 10 μL/well reaction concentration of the bodipy-loaded KRAS G12C, GppNHp, and SOS1 were 2.5 nM, 500 uM, and 150 nM, respectively. The reaction plates were incubated at ambient temperature for 2 hours, a time estimated for complete GDP-GTP exchange in the absence of inhibitor. For the KRAS G12D and G12V mutants, similar guanine nucleotide exchange assays were used with 2.5 nM as final concentration for the bodipy loaded KRAS proteins and with 4 hours and 3 hours incubation after adding GppNHp-SOS1 mixture for G12D and G12V respectively. A cyclic peptide described to selectively bind G12D mutant (Sakamoto et al., BBRC 484.3 (2017), 605-611) or internal compounds with confirmed binding were used as positive controls in the assay plates. Fluorescence intensities were measured on a PheraStar plate reader instrument (BMG Labtech) with excitation at 485 nm and emission at 520 nm.
Either GraphPad prism or Genedata Screener SmartFit was used to analyze the data. The IC50 values were derived by fitting the data to a four parameter logistic equation producing a sigmoidal dose-response curve with a variable Hill coefficient.

In another experiment the test system is KRAS_G12C pERK. Briefly: Cellular pERK HTRF assay (KRAS_G12C pERK assay). The class given is cell-based, human. As to conditions: KRAS G12C cells, 4 hours incubation with compound, read-out: G12C_pERK. As to the method:
MIA PaCa-2 (KRAS G12C; ATCC® CRL-1420), NCI-H358 (KRAS G12C; ATCC® CRL-5807), A427 (KRAS G12D; ATCC® HTB53), HPAFII (KRAS G12D; ATCC® CRL-1997), YAPC (KRAS G12V; DSMZ ACC382), SW480 (KRAS G12V; ATCC® CRL-228) and NCI-H838 (KRAS WT; ATCC® CRL-5844) cells are purchased from ATCC and maintained in RPMI 1640 media supplemented with 10% FBS (Gibco/Life Technologies). The cells are plated at 5000 cells per well (8 uL) into Greiner 384-well low volume, flat-bottom, and tissue culture treated white plates and incubated overnight at […], 5% CO2. The next morning, test compound stock solutions are diluted in media at 3× the final concentration and 4 uL are added to the cells, with a final concentration of 0.1% of DMSO. The cells are incubated with the test compounds for 4 hours (G12C and G12V) or 2 hrs (G12D) at 37° C., 5% CO2. Four uL of 4× lysis buffer with blocking reagent (Cisbio) are added to each well and plates are rotated gently (300 rpm) for 30 minutes at room temperature. Four uL per well of Cisbio anti Phospho-ERK 1/2 d2 is mixed with anti Phospho-ERK 1/2 Cryptate (1:1), and added to each well, incubated overnight in the dark at room temperature. Plates are read on the Pherastar plate reader at 665 nm and 620 nm wavelengths. Data are analyzed in Genedata Screener using SmartFit for IC50 values.
(TR-FRET usually uses a lanthanide donor and a delayed reading to cut background.)

The structures appear in SMILES notation. Where two headings read alike, the source gives them in different places.

KRAS G12C, sequence (P01116 1-188 isoform P01116-2 G12C): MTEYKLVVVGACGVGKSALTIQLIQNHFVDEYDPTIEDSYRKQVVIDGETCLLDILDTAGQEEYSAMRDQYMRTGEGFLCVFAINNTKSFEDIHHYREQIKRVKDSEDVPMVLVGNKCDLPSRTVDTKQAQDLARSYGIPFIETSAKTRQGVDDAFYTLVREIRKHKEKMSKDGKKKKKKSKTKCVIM

Take `CN(C)C1(C)CN(c2nc3c(F)c(-c4ccc(F)c5cccnc45)c(C(F)(F)F)cc3c3c2nnn3[C@H]2CCN(C(=O)/C=C/CF)[C@H](CC#N)C2)C1` (single isomer, unassigned) [Example 1b]: the values for the IC50 on KRAS G12C and in the experiment on KRAS_G12C pERK were no more than 50 nM and 50 to 100 nM, respectively.
`COc1c(C)cccc1-c1c(C(F)(F)F)cc2c(nc(N3CC(C)(N(C)C)C3)c3nnn([C@H]4CCN(C(=O)/C=C/CF)[C@H](CC#N)C4)c32)c1F` (single isomer, unassigned) [Example 2b]: the IC50 on KRAS G12C was no more than 50 nM; with KRAS_G12C pERK, 50 to 100 nM.
The corresponding values for `COc1c(Cl)cccc1-c1c(C(F)(F)F)cc2c(nc(N3CC(C)(N(C)C)C3)c3nnn([C@H]4CCN(C(=O)/C=C/CF)[C@H](CC#N)C4)c32)c1F` (single isomer, unassigned) [Example 3b] are no more than 50 nM and no more than 50 nM.
The corresponding values for `C[C@H](Oc1nc2c(F)c(-c3ccc(F)c4cccnc34)c(C(F)(F)F)cc2c2c1nnn2[C@H]1CCN(C(=O)/C=C/CF)[C@H](CC#N)C1)[C@@H]1CCCN1C` (single isomer, unassigned) [Example 4b] are no more than 50 nM and no more than 50 nM.
The corresponding values for `C=CC(=O)N1CCC(n2nnc3c(O[C@@H](C)[C@@H]4CCCN4C)nc4c(F)c(-c5ccc(F)c6cccnc56)c(C(F)(F)F)cc4c32)CC1` (single isomer, unassigned) [Example 5b] are no more than 50 nM and 50 to 100 nM.
With `C=CC(=O)N1CCC(n2nnc3c(O[C@@H](C)[C@@H]4CCCN4C)nc4c(F)c(-c5cccc6cccc(C#N)c56)c(C)cc4c32)CC1` (single isomer, unassigned) [Example 11a], the IC50 is no more than 50 nM at KRAS G12C and 100 to 1000 nM in the experiment with KRAS_G12C pERK (Homo sapiens, 4 h).
`C=CC(=O)N1CC[C@H](n2nnc3c(O[C@@H](C)[C@@H]4CCCN4C)nc4c(F)c(-c5cccc6cccc(C#N)c56)c(C)cc4c32)C[C@H]1C` (single isomer, unassigned) [Example 14a]: on KRAS G12C, the IC50 lay within 50 to 100 nM.
The same measure, in the same setting: the figure for `C=C(F)C(=O)N1CC[C@H](n2nnc3c(N4CC(N(C)CC)C4)nc4c(F)c(-c5c(C)c(C)cc6[nH]ncc56)c(C)cc4c32)C[C@H]1CC#N` (single isomer, unassigned) [Example 15b] is 100 to 1000 nM.
With `Cc1cc2c(nc(O[C@@H](C)[C@@H]3CCCN3C)c3nnn(C4CCN(C(=O)/C=C/CF)CC4)c32)c(F)c1-c1cccc2cccc(C#N)c12` (single isomer, unassigned) [Example 16a], the IC50 on KRAS G12C was no more than 50 nM; in the experiment on KRAS_G12C pERK (Homo sapiens, 4 h) it was 100 to 1000 nM.
For the compound `C=C(F)C(=O)N1CC[C@H](n2nnc3c(N4CC(C)(N(C)C)C4)nc4c(F)c(-c5cccc6cccc(C#N)c56)c(C)cc4c32)C[C@H]1CC#N` (single isomer, unassigned) [Example 17b], the IC50 at KRAS G12C fell in the range of 100 to 1000 nM.
For `COC/C=C/C(=O)N1CC[C@H](n2nnc3c(N4CC(C)(N(C)C)C4)nc4c(Cl)c(-c5ccc(F)c6cccnc56)c(Cl)cc4c32)C[C@H]1CC#N` (single isomer, unassigned) [Example 18b], the figures for the IC50 on KRAS G12C and in the experiment on KRAS_G12C pERK were no more than 50 nM and 100 to 1000 nM, respectively.
The corresponding values for `CN(C)C1(C)CN(c2nc3c(Cl)c(-c4ccc(F)c5cccnc45)c(Cl)cc3c3c2nnn3[C@H]2CCN(C(=O)/C=C/CF)[C@H](CC#N)C2)C1` (single isomer, unassigned) [Example 19b] are no more than 50 nM and no more than 50 nM.
On to `C=C(F)C(=O)N1CC[C@H](n2nnc3c(O[C@@H](C)[C@@H]4CCCN4C)nc4c(F)c(-c5c(C)ncc6ccccc56)c(C)cc4c32)C[C@H]1CC#N` (single isomer, unassigned) [Example 23a], for which, on KRAS G12C, the IC50 lay within 50 to 100 nM.
With `COC/C=C/C(=O)N1CC[C@H](n2nnc3c(O[C@@H](C)[C@@H]4CCCN4C)nc4c(F)c(-c5c(C)ncc6ccccc56)c(C)cc4c32)C[C@H]1CC#N` (single isomer, unassigned) [Example 24a], the IC50 on KRAS G12C is no more than 50 nM; in the experiment on KRAS_G12C pERK (Homo sapiens, 4 h), 50 to 100 nM.
Regarding `C=C(F)C(=O)N1CC[C@H](n2nnc3c(O[C@@H](C)[C@@H]4CCCN4C)nc4c(F)c(-c5c(F)ccc6ccc(C)nc56)c(C)cc4c32)C[C@H]1CC#N` (single isomer, unassigned) [Example 25b], the IC50 at KRAS G12C and in the experiment with KRAS_G12C pERK was no more than 50 nM throughout.
`C=CC(=O)N1CC[C@H](n2nnc3c(O[C@@H](C)[C@@H]4CCCN4C)nc4c(F)c(-c5cccc6c5c(CC#N)nn6C)c(C)cc4c32)C[C@H]1C` (single isomer, unassigned) [Example 28a]: at KRAS G12C, the IC50 lay in the range of 100 to 1000 nM.
Same read-out and setting: the figure for `C=CC(=O)N1CC[C@H](n2nnc3c(O[C@@H](C)[C@@H]4CCCN4C)nc4c(F)c(-c5cccc6c5c(CC#N)cn6C)c(C)cc4c32)C[C@H]1C` (single isomer, unassigned) [Example 31a] is 100 to 1000 nM; for `C=CC(=O)N1CCC(n2nnc3c(O[C@@H](C)[C@@H]4CCCN4C)nc4c(F)c(-c5cccc6c5c(CC#N)cn6C)c(C)cc4c32)CC1` (single isomer, unassigned) [Example 32a] it is 50 to 100 nM; for `C=C(F)C(=O)N1CC[C@H](n2nnc3c(N4CC(C)(N(C)CC)C4)nc4c(F)c(-c5c(C)c(C)cc6[nH]ncc56)c(Cl)cc4c32)C[C@H]1CC#N` (single isomer, unassigned) [Example 33b] it is 100 to 1000 nM.
In the case of `COC/C=C/C(=O)N1CC[C@H](n2nnc3c(O[C@@H](C)[C@@H]4CCCN4C)nc4c(F)c(-c5c(F)cccc5OC)c(C)cc4c32)C[C@H]1CC#N` (single isomer, unassigned) [Example 34a], the IC50 on KRAS G12C is no more than 50 nM; in the experiment with KRAS_G12C pERK (Homo sapiens, 4 h) it was no more than 50 nM.
Turning to `C=C(F)C(=O)N1CC[C@H](n2nnc3c(N4CC(C)(N(C)CC)C4)nc4c(F)c(-c5c(C)c(F)cc6[nH]ncc56)c(Cl)cc4c32)C[C@H]1CC#N` (single isomer, unassigned) [Example 35b], at KRAS G12C, the IC50 lay within 100 to 1000 nM.
